Measurements as given in ChEMBL document CHEMBL1201862, “PubChem BioAssay data set” (2004).
The source made the active and inactive calls.

Assays:
P388/ADR = assay: cells; assay type: functional; conditions: Mus musculus
[1] = Fluorescence-based cell-based high throughput dose response assay for inhibitors of the interaction of nucleotide-binding oligomerization domain containing 2 (NOD2) and the receptor-interacting serine-threonine kinase 2 (RIPK2).; assay type: functional; conditions: Homo sapiens
Paired box protein Pax-8 = Paired box protein Pax-8 (Homo sapiens, UniProt Q06710); assay: inhibitors of PAX8-driven TPO luciferase reporter, dose response, RMG-I cells, cherry-pick (AID 687027); assay type: functional, cell-based;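 also: luciferase reporter driven by Pax8 target thyroperoxidase promoter measured by SteadyGlo luminescence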
Sequence of Paired box protein Pax-8 (Q06710 whole entry): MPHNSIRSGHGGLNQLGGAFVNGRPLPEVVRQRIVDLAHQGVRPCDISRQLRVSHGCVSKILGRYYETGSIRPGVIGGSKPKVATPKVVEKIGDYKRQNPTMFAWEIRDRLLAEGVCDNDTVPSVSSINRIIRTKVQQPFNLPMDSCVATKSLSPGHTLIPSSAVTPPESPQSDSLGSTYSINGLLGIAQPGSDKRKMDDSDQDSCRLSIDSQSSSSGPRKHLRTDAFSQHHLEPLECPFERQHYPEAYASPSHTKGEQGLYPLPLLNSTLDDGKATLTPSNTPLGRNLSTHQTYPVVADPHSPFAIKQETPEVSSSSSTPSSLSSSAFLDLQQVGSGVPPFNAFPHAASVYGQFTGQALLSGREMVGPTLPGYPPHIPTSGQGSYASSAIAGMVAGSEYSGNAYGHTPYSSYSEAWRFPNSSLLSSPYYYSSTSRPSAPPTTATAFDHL

P388 = assay: cells; assay type: functional; conditions: Mus musculus
Vero = assay: cells; assay type: functional; conditions: Chlorocebus sabaeus
Escherichia coli = assay: microbe, parasite or virus in culture
[2] = inhibitors of SNCA 5'UTR-driven reporter translation, confirmation, H4 neuroglioma cells, luminescence (AID 1988); assay type: functional, cell-based
[3] = molecular target: T1, COUP transcription factor 2 (Homo sapiens, UniProt P24468); assay: Luminescence-based cell-based high throughput dose response assay to identify inhibitors of COUP-TFII (NR2F2).; assay type: functional;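 also: HEK293 cells transiently cotransfected with COUP-TFII expression vector and reporter; luciferase reporter luminescence driven by COUP-TFII from the pX2-168 reporter plasmid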
T1 sequence (P24468 whole entry): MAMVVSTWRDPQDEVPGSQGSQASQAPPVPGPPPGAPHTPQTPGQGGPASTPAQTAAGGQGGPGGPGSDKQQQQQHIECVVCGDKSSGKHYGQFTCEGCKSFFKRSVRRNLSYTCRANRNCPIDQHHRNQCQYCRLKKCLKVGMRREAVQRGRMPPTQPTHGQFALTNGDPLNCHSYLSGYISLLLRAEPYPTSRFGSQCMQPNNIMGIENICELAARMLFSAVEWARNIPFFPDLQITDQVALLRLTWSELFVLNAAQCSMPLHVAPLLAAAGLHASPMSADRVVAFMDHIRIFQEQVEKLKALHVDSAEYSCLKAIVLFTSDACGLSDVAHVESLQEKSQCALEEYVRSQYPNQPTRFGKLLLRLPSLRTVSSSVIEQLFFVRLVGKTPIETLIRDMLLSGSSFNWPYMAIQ

[4] = Luminescence Cell-Based Dose Response HTS to Identify Inhibitors of 5'UTR Stem-Loop Driven Prion Protein mRNA Translation in H4 Neuroglioblastoma Cells. [Related pubchem assays: 1827 (Project Summary), 1813 (Primary HTS)]; assay type: functional
Protein RecA = molecular target: T2, Protein RecA (Mycobacterium tuberculosis, UniProt P9WHJ3); assay: Fluorescence Cell-Free Homogeneous Dose Retest to Identify Inhibitors of RecA-Intein Splicing Activity. [Related pubchem assays (depositor defined):AID2097, AID2223, AID489010, AID492950]; assay type: functional
T2 sequence (P9WHJ3 whole entry): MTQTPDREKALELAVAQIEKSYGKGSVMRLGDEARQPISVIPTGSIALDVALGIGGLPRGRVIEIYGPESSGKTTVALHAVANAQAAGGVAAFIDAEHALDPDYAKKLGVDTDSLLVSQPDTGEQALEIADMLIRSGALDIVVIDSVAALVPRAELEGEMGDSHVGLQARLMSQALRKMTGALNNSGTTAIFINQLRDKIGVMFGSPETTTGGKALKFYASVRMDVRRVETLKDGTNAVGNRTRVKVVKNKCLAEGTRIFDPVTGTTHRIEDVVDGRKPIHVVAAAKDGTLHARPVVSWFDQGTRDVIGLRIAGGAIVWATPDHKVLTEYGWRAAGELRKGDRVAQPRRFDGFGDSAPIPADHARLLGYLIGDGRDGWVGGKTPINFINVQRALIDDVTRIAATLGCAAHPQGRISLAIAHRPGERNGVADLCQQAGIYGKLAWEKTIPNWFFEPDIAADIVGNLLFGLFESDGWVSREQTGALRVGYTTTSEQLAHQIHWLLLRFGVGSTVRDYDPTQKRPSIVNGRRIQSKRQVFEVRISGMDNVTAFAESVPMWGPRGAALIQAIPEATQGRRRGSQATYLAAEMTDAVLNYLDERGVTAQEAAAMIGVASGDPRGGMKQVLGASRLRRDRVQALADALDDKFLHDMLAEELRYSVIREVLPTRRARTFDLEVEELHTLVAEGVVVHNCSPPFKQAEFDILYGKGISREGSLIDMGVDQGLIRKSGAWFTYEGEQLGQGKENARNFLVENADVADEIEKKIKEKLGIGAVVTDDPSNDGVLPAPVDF

[5] = inhibitors of firefly luciferase expression or activity, dose response, H4 neuroglioma cells, luminescence (AID 1990); assay type: functional, cell-based
BJ [6] = assay: cells; assay type: functional, cell-based; conditions: Homo sapiens
[7] = cytotoxicity toward DRD oncogenic fibroblasts, dose response, cell-based, non-viral oncogenic, luminescence (AID 1934); assay type: functional; conditions: Homo sapiens
BJ [8] = assay: cytotoxicity toward BJ-TERT fibroblasts, dose response, cell-based, RAS-independent, luminescence (AID 1933); assay type: functional; conditions: Homo sapiens
[9] = molecular target: T3, Replicative DNA helicase DnaB (Mycobacterium tuberculosis, UniProt P9WMR3); assay: DnaB intein splicing inhibitors, dose response, biochemical, cell-free fluorescence (AID 449749); assay type: functional
T3 sequence (P9WMR3 whole entry): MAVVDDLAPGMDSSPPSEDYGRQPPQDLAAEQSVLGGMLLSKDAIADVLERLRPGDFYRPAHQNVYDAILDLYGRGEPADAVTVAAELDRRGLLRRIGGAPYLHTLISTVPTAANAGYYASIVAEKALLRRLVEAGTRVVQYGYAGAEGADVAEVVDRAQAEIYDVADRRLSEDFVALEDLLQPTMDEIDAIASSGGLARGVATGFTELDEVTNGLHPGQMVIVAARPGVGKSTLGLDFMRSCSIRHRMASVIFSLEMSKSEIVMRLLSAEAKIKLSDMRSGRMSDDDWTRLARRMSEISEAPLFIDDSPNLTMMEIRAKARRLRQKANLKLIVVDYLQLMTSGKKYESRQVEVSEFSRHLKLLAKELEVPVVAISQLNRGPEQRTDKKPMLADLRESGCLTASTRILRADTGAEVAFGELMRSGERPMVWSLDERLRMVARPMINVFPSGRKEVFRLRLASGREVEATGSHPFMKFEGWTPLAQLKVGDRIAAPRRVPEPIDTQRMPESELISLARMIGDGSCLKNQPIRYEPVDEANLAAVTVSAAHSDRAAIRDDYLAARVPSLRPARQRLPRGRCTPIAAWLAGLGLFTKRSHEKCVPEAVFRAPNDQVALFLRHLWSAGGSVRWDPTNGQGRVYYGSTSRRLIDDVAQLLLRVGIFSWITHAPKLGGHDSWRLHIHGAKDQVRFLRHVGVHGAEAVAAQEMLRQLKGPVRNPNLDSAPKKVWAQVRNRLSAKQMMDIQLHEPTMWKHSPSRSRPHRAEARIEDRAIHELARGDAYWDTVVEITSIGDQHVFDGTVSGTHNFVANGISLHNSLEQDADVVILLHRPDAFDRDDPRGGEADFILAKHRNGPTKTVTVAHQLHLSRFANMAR

INS1 = assay: beta cell apoptosis inhibitors, cytokine rescue, dose response, luminescence, retest (AID 449756); assay type: functional, cell-based; conditions: Rattus norvegicus;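 also: cell death triggered by IL-1 beta plus TNF-alpha plus IFN-gamma mixture; protective hits raise ATP signal compared with cytokine alone wells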
BJ [10] = assay: cytotoxicity toward BJ-TERT-LT-ST fibroblasts, dose response, cell-based, RAS-independent, luminescence (AID 1935); assay type: functional; conditions: Homo sapiens;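 also: BJ fibroblasts immortalized with TERT plus LT and ST oncogenes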
[11] = molecular target: Photoreceptor-specific nuclear receptor (Homo sapiens, UniProt Q9Y5X4); assay type: functional, cell-based;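 also: CHO-S cells with Gal4-NCOR and VP16-NR2E3 two-hybrid luciferase reporter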
Sequence of Photoreceptor-specific nuclear receptor (Q9Y5X4 whole entry, the tested form may be a part): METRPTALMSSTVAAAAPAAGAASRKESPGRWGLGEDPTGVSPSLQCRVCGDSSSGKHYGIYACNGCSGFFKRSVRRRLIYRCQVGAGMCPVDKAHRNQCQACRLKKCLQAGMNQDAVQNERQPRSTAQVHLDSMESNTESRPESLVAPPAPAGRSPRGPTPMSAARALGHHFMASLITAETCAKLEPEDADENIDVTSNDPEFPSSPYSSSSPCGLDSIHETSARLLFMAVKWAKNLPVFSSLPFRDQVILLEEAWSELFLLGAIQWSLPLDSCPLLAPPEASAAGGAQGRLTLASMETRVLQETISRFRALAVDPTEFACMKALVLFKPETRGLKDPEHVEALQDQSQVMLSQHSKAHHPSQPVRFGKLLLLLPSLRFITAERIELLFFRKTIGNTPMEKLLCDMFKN

[12] = molecular target: Heat shock protein HSP 90-alpha (Homo sapiens, UniProt P07900); assay type: functional, organism-based
[13] = molecular target: T4, Adenosylmethionine-8-amino-7-oxononanoate aminotransferase (Mycobacterium tuberculosis, UniProt P9WQ81); assay: Mycobacterium tuberculosis BioA enzyme inhibitor Measured in Biochemical System Using Plate Reader - 2163-02_Inhibitor_Dose_CherryPick_Activity.; assay type: functional, Mycobacterium tuberculosis UT205
T4 sequence (P9WQ81 whole entry): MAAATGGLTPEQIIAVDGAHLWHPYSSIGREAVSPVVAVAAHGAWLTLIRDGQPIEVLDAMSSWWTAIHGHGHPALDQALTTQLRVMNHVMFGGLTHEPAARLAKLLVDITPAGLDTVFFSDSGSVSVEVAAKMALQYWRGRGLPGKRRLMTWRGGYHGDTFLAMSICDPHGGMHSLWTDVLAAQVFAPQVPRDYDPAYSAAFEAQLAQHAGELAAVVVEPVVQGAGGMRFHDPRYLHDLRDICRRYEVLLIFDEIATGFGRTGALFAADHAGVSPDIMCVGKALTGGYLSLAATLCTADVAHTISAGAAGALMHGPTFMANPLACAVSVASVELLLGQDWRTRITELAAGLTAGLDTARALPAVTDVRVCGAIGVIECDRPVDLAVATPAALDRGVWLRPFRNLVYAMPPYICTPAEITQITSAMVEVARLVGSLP

[14] = molecular target: Eukaryotic translation initiation factor 4E (Mus musculus, UniProt P63073); assay: eIF4E–eIF4G protein interaction inhibitors, dose response, biochemical, TR-FRET (AID 855); assay type: functional;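 also: potency for disrupting eIF4E binding to eIF4GI seen as loss of FRET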
Sequence of Eukaryotic translation initiation factor 4E (P63073 whole entry): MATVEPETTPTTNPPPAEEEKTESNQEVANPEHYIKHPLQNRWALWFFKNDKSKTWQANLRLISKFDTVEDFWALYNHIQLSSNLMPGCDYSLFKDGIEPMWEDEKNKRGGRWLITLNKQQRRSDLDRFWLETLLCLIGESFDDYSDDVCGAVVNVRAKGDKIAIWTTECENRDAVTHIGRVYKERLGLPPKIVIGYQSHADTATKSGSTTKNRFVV

[15] = molecular target: Ras and Rab interactor 1/Tyrosine-protein kinase ABL1 (Homo sapiens, UniProt P00519+Q13671); assay type: functional;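 also: biochemical TR-FRET dose-response test measuring inhibition of binding between Rin1 and Abl proteins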
Sequence of Ras and Rab interactor 1/Tyrosine-protein kinase ABL1 (P00519 whole entry): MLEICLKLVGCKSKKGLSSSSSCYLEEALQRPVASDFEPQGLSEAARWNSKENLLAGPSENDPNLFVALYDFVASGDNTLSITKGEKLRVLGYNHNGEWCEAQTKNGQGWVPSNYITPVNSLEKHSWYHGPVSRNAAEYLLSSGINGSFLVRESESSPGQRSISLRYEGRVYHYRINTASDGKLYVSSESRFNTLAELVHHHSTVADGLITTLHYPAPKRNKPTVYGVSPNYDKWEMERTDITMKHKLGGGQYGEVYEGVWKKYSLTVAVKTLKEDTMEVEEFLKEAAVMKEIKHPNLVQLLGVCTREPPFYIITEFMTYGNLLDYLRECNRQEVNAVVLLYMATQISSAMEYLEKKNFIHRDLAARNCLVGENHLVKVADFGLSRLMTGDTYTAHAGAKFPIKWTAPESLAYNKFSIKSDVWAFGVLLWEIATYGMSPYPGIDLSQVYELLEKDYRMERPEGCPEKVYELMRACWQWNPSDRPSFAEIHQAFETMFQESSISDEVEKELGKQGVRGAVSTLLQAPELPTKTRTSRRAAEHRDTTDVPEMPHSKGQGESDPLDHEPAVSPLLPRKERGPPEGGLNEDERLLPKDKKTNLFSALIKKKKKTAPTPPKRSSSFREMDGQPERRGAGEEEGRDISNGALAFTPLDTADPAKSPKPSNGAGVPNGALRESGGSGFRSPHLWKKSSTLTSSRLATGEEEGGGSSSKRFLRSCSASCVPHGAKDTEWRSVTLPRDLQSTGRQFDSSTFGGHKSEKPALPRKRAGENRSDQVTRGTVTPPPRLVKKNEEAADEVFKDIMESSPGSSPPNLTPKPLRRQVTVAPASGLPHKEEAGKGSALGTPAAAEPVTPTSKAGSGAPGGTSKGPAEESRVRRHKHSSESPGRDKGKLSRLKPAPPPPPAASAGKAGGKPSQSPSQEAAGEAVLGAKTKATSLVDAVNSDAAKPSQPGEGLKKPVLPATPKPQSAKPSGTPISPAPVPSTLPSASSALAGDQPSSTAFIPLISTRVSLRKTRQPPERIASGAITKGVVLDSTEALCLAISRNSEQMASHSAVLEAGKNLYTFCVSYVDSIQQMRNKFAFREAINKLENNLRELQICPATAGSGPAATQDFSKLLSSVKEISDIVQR
Sequence of Ras and Rab interactor 1/Tyrosine-protein kinase ABL1 (Q13671 whole entry): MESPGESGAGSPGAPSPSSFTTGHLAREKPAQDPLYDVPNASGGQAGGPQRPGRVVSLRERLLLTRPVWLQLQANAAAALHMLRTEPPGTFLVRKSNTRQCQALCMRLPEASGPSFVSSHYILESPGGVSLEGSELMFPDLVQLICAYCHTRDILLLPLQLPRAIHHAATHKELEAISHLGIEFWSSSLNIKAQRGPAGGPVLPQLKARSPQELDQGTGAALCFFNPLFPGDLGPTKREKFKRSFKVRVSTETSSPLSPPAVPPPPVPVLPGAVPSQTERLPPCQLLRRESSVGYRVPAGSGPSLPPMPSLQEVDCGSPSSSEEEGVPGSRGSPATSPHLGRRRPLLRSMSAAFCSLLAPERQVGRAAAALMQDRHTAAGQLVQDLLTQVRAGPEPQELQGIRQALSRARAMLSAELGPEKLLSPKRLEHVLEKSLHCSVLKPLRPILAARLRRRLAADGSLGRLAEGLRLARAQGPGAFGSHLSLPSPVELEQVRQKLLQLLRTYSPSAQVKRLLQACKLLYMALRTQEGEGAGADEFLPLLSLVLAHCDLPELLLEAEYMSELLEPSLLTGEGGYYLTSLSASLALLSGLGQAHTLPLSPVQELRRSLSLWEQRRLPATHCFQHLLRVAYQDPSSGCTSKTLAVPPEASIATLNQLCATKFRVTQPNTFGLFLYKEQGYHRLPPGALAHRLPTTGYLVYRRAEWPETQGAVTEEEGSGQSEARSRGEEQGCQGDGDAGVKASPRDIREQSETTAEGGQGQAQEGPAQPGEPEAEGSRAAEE

cells [16] = assay type: functional, cell-based
cells [17] = assay type: functional, cell-based; remark: listed apart in the source

COc1ccc(CC2C(=O)NC(C)C(=O)N(C)C3Cc4ccc(cc4)Oc4cc(ccc4O)CC(C(=O)NC(C)C(=O)NC(C)C(=O)N2C)N(C)C3=O)cc1 (stereo not drawn)
GI50 (P388/ADR): 3.94 µM (inactive)
IC50 [1]: 49.8 µM (inactive)
AC50 (Paired box protein Pax-8): < 0.26 µM (active)
GI50 (P388): 0.0175 µM (active)
CC50 (Vero): 3.44 µM (active)

Cc1onc(-c2ccccc2)c1C(=O)Nc1nc(-c2cc(F)ccc2F)cs1
AC50 (Escherichia coli): 38.9 µM (active)

N#CC(C#N)=C(Nc1ccc(F)cc1)SCc1cccc(Br)c1
EC50 [2]: 13.5 µM (active)
IC50 [3]: 11.3 µM (inactive)
EC50 [4]: 0.272 µM (active)
EC50 (Protein RecA): 2.38 µM (active)
EC50 [5]: 11.2 µM (active)
EC50 (BJ [6]): 22.2 µM (active)
EC50 [7]: 21.7 µM (active)
EC50 (BJ [8]): 11.8 µM (inconclusive)
AC50 [9]: 3.08 µM (active)
AC50 (INS1): 2.92 µM (active)
EC50 (BJ [10]): 22.5 µM (active)

CC1CC(C)C(=NNC(N)=O)C(C(O)CC2CCC(=O)NC2=O)C1 (stereo not drawn)
IC50 [11]: 2.53 µM (active)
AC50 [12]: < 0.195 µM (active)
CC50 (Vero): > 25 µM (active)

COCCNC(=O)C[C@@H]1CC[C@@H]2[C@@H](COc3ccc(NC(=O)Nc4cccc(F)c4)cc3C(=O)N2C)O1
AC50 [13]: 10.8 µM (active)

O=[N+]([O-])c1cccc(-c2ccc(/C=N/n3c(S)nnc3-c3ccccc3)o2)c1
IC50 [14]: > 64 µM (inactive)

CC1CN(C(=O)Nc2ccc3snnc3c2)c2ccccc21 (stereo not drawn)
AC50 [13]: 0.212 µM (active)

O=C(Nc1ccc(F)cc1)NC1CCN(Cc2nnnn2Cc2ccco2)CC1
AC50 [13]: 3.58 µM (active)

CCOC(=O)CCCCC(=O)c1[nH]c(=O)[nH]c1CSc1nc(C)cc(C)n1
IC50 [15]: 2.39 µM (active)

C[C@@H]1CCCCO[C@@H](CN(C)S(=O)(=O)c2ccccc2)[C@@H](C)CN([C@H](C)CO)C(=O)c2cc(NS(=O)(=O)c3ccc(F)cc3)ccc2O1
IC50 [15]: 1.9 µM (active)

COc1cc(NC(=O)C2CCCCC2)c(OC)cc1NC(=O)c1ccco1
AC50 (Escherichia coli): 30.6 µM (active)

O=C1CNC(=O)N1CC(O)Cn1c2ccccc2c2ccccc21 (stereo not drawn)
IC50 [15]: 11.9 µM (inactive)

CS(=O)(=O)c1ccc(Cl)c(NC(=O)COC(=O)CCc2c[nH]c3ccccc23)c1
AC50 (Escherichia coli): 31.5 µM (active)

Cc1cc(C)c(NS(=O)(=O)c2ccc3c(c2)NC(=O)CCS3)c(C)c1
EC50 (cells [16]): 58.1 µM (active)
EC50 (cells [17]): > 350 µM (not active)
AC50 (Escherichia coli): 23.1 µM (active)

Cc1ccc(Cc2c(C)nc3nc(SCC(=O)NCCN4CCOCC4)nn3c2C)cc1
AC50 [13]: 12.6 µM (active)

Cc1nc(C(C)(C)O)n(-c2ccccc2)n1
IC50 [14]: > 64 µM (inactive)

O=C(CN1C(=O)C(c2ccc(F)cc2)=NC12CCCC2)Nc1ccc(F)cc1
IC50 [11]: 2.93 µM (active)

O=C(c1cc(COc2cccc3cccnc23)on1)N1CCC[C@H]1CO
IC50 [15]: 2.94 µM (active)

Nc1nnc(CC(=O)N2CCCCC2)s1
IC50 [14]: > 64 µM (inactive)

CCn1c(SCC(=O)Nc2ccccc2OC)nc2ccccc2c1=O
IC50 [14]: > 64 µM (inactive)
